Data: ChEMBL document CHEMBL1153872, “Synthesis, analgesic, anti-inflammatory and antimicrobial studies of 2,4-dichloro-5-fluorophenyl containing thiazolotriazoles” (2009)

Tests used:
Type in all cases: functional
[1] = test system: Rattus norvegicus; test: Antiinflammatory activity in Wister albino rat assessed as inhibition carrageenan-induced paw edema at 2 mg/kg, po administered 30 mins before carrageenan challenge measured after 3 hrs relative to control
[2] = test system: Streptococcus pyogenes; test: Antibacterial activity against Streptococcus pyogenes after 24 hrs by disk diffusion method
[3] = test system: Klebsiella pneumoniae; test: Antibacterial activity against Klebsiella pneumoniae after 24 hrs by disk diffusion method
[4] = test system: Mus musculus; test: Analgesic activity in albino mouse assessed as response latency time to pain stimulus at 25 mg/kg, po after 3 hrs by hot plate method; set-up: unit not given here
[5] = test system: Candida albicans; test: Antifungal activity against Candida albicans after 3 to 4 days by agar diffusion method
[6] = test system: Staphylococcus aureus; test: Antibacterial activity against Staphylococcus aureus after 24 hrs by disk diffusion method
[7] = test system: Klebsiella pneumoniae; test: Antibacterial activity against Klebsiella pneumoniae after 24 hrs by broth dilution technique
[8] = test system: Staphylococcus aureus; test: Antibacterial activity against Staphylococcus aureus after 24 hrs by broth dilution technique
[9] = test system: Escherichia coli; test: Antibacterial activity against Escherichia coli after 24 hrs by broth dilution technique
[10] = test system: Escherichia coli; test: Antibacterial activity against Escherichia coli after 24 hrs by disk diffusion method
[11] = test system: Talaromyces marneffei; test: Antifungal activity against Penicillium marneffei after 48 hrs by twofold broth dilution method
[12] = test system: Pseudomonas aeruginosa; test: Antibacterial activity against Pseudomonas aeruginosa after 24 hrs by broth dilution technique
[13] = test system: Streptococcus pyogenes; test: Antibacterial activity against Streptococcus pyogenes after 24 hrs by broth dilution technique
[14] = test system: Trichophyton mentagrophytes; test: Antifungal activity against Trichophyton mentagrophytes after 48 hrs by twofold broth dilution method
[15] = test system: Mus musculus; test: Analgesic activity in albino mouse assessed as response latency time to pain stimulus at 25 mg/kg, po after 1 hr by hot plate method; set-up: unit not given here
[16] = test system: Candida albicans; test: Antifungal activity against Candida albicans after 48 hrs by twofold broth dilution method
[17] = test system: Pseudomonas aeruginosa; test: Antibacterial activity against Pseudomonas aeruginosa after 24 hrs by disk diffusion method
[18] = test system: Aspergillus fumigatus; test: Antifungal activity against Aspergillus fumigatus after 3 to 4 days by agar diffusion method
[19] = test system: Aspergillus fumigatus; test: Antifungal activity against Aspergillus fumigatus after 48 hrs by twofold broth dilution method
[20] = test system: Rattus norvegicus; test: Antiinflammatory activity in Wister albino rat assessed as inhibition of carrageenan-induced paw edema at 50 mg/kg, po administered 30 mins before carrageenan challenge measured after 3 hrs relative to control
[21] = test system: Trichophyton mentagrophytes; test: Antifungal activity against Trichophyton mentagrophytes after 3 to 4 days by agar diffusion method
[22] = test system: Talaromyces marneffei; test: Antifungal activity against Penicillium marneffei after 3 to 4 days by agar diffusion method
[23] = test system: Aspergillus niger; test: Antifungal activity against Aspergillus niger after 3 to 4 days by agar diffusion method
[24] = test system: Aspergillus niger; test: Antifungal activity against Aspergillus niger after 48 hrs by twofold broth dilution method
[25] = test system: Mus musculus; test: Analgesic activity in albino mouse assessed as response latency time to pain stimulus at 5 mg/kg, ip after 3 hrs by hot plate method; settings: route intraperitoneal
[26] = test system: Mus musculus; test: Analgesic activity in albino mouse assessed as response latency time to pain stimulus at 5 mg/kg, ip after 1 hr by hot plate method; settings: route intraperitoneal

Structure (SMILES)	Diameter of inhibition zone [2] [mm]	Diameter of inhibition zone [3] [mm]	Time [4]	Diameter of inhibition zone [5] [mm]	Diameter of inhibition zone [6] [mm]	MIC [7] [microg/cm3]	MIC [8] [microg/cm3]	MIC [9] [microg/cm3]	Diameter of inhibition zone [10] [mm]	MIC [11] [microg/cm3]	MIC [12] [microg/cm3]	MIC [13] [microg/cm3]	MIC [14] [microg/cm3]	Time [15]	MIC [16] [microg/cm3]	Diameter of inhibition zone [17] [mm]	Diameter of inhibition zone [18] [mm]	MIC [19] [microg/cm3]	inhibition in vivo at 50 mg/kg [20] [%]	MIC [24] [microg/cm3]	also measured
COc1ccc2c(c1)c(CC(=O)O)c(C)n2C(=O)c1ccc(Cl)cc1 [INDOMETHACIN]	–	–	–	–	–	–	–	–	–	–	–	–	–	–	–	–	–	–	–	–	inhibition in vivo at 2 mg/kg [1]: 62.9%
Fc1cc(-c2nc3scc(-c4ccc(Cl)cc4)n3n2)c(Cl)cc1Cl	19	17	12.9	20	26	6.25	6.25	6.25	26	6.25	6.25	6.25	6.25	13.2	6.25	31	19	6.25	42.2	6.25	Diameter of inhibition zone [21]: 19 mm; Diameter of inhibition zone [22]: 19 mm; Diameter of inhibition zone [23]: 24 mm
COc1ccc(-c2csc3nc(-c4cc(F)c(Cl)cc4Cl)nn23)cc1	23	19	11.96	17	21	6.25	6.25	6.25	25	6.25	6.25	6.25	12.5	11.1	6.25	30	–	>100	40.6	6.25	Diameter of inhibition zone [21]: 14 mm; Diameter of inhibition zone [22]: 17 mm; Diameter of inhibition zone [23]: 20 mm
CCOC(=O)C1(c2ccccc2)CCN(C)CC1 [MEPERIDINE]	–	–	–	–	–	–	–	–	–	–	–	–	–	–	–	–	–	–	–	–	Time [25]: 14.3 h; Time [26]: 16.4 h
C[C@@H]1[C@H](O)[C@@H](C)/C=C/C=C/C=C/C=C/C=C/C=C/C=C/[C@H](O[C@@H]2O[C@H](C)[C@@H](O)[C@H](N)[C@@H]2O)C[C@@H]2O[C@](O)(C[C@@H](O)C[C@@H](O)[C@H](O)CC[C@@H](O)C[C@@H](O)CC(=O)O[C@H]1C)C[C@H](O)[C@H]2C(=O)O [AMPHOTERICIN B]	–	–	–	20	–	–	–	–	–	6.25	–	–	6.25	–	6.25	–	21	6.25	–	12.5	Diameter of inhibition zone [21]: 19 mm; Diameter of inhibition zone [22]: 23 mm; Diameter of inhibition zone [23]: 25 mm
Fc1ccc(-c2csc3nc(-c4cc(F)c(Cl)cc4Cl)nn23)cc1	21	20	8.2	19	18	6.25	12.5	6.25	23	6.25	6.25	6.25	6.25	8.3	6.25	28	29	6.25	48.8	6.25	Diameter of inhibition zone [21]: 17 mm; Diameter of inhibition zone [22]: 21 mm; Diameter of inhibition zone [23]: 21 mm
Fc1cc(-c2nc3scc(-c4ccc(Cl)cc4Cl)n3n2)c(Cl)cc1Cl	15	13	9.6	10	14	12.5	12.5	12.5	11	12.5	12.5	6.25	>100	8.96	25	13	8	25	17.2	12.5	Diameter of inhibition zone [22]: 12 mm; Diameter of inhibition zone [23]: 14 mm
O=C(O)c1cn(C2CC2)c2cc(N3CCNCC3)c(F)cc2c1=O [CIPROFLOXACIN]	25	21	–	–	23	6.25	6.25	6.25	29	–	6.25	6.25	–	–	–	32	–	–	–	–	–
Fc1cc(-c2nc3scc(-c4ccc(Br)cc4)n3n2)c(Cl)cc1Cl	25	19	13.9	14	21	6.25	6.25	6.25	24	25	6.25	6.25	>100	14.8	12.5	29	12	12.5	25	25	Diameter of inhibition zone [22]: 10 mm; Diameter of inhibition zone [23]: 9 mm
Fc1cc(-c2nc3scc(-c4cc(F)c(Cl)cc4Cl)n3n2)c(Cl)cc1Cl	24	19	13.6	18	23	6.25	6.25	6.25	28	6.25	6.25	6.25	6.25	14.21	6.25	30	20	6.25	59.4	12.5	Diameter of inhibition zone [21]: 18 mm; Diameter of inhibition zone [22]: 23 mm; Diameter of inhibition zone [23]: 22 mm
O=[N+]([O-])c1ccc(-c2csc3nc(-c4cc(F)c(Cl)cc4Cl)nn23)cc1	12	11	10.9	16	12	12.5	12.5	6.25	15	6.25	6.25	12.5	25	11.2	6.25	15	17	6.25	10.9	>100	Diameter of inhibition zone [21]: 10 mm; Diameter of inhibition zone [22]: 18 mm
Cc1ccc(-c2csc3nc(-c4cc(F)c(Cl)cc4Cl)nn23)cc1	14	15	8.4	–	15	6.25	6.25	12.5	13	>100	6.25	12.5	25	8.2	>100	14	16	6.25	0	12.5	Diameter of inhibition zone [21]: 8 mm; Diameter of inhibition zone [23]: 11 mm
